One test has as its system APP. The test can be described thus: APP, C99, C83 and sAPP levels in 751APPSW CHO cells (immunoblot, immunostaining). The test is classed as cell-based, human. (In general: Immunoblotting shows a protein as a band on a membrane.)
A further test deals with T1, Aβ40 (Homo sapiens, UniProt P05067).
T1 construct: host or cells: chemical solid-phase peptide synthesis (no expression host)
The test can be described thus: Thioflavin-T fibrillization assay. The format is biochemical. An excerpt:
Synthetic Aβ 1-40 peptide (sequence: […]) was synthesized at the W.M. Keck Foundation Facility (Yale University, New Haven, Conn.) by solid-phase technique on a p-methyl-benzhydrylamine resin, using a Biosearch SAM 2 synthesizer and purified by high performance liquid chromatography (HPLC) with the use of a reverse-phase support medium (Delta-Bondapak) on a 0.78×30 cm column with a 0-66% linear gradient of acetonitrile in 0.1% (v/v) trifluroacetic acid, as previously described. The peptide content of the eluate was monitored by measurement of its absorption at 214 nm. To verify the sequence and purity of the peptide, linear, time-of-flight mass spectrometry was performed at the Skirball Institute at New York University. For aggregation studies the peptide was diluted in 1,1,1,3,3,3-hexafluoro-2-propanol (HFIP; Sigma St. Loius, Mo.) at a concentration of 10 mM/mL, aliquoted and lyophilized. HFIP treatment renders peptides monomeric with minimal β-sheet content. Lyophilized peptides were stored at −80° C. and resuspended immediately prior to each experiment in the appropriate diluent.
The effect of compounds of the present invention on aggregation of Aβ 1-40 peptide was tested using a Thioflavin-T assay according to previously published methods. Aggregation of Aβ 1-40 incubated alone was measured for comparison. Aβ 1-40 was HFIP treated (as described above) and reconstituted in 100 mM Tris buffer (pH 7.4) to obtain a 100 μmol/L concentration. Stock of investigational compounds (50 mmol/L stock diluted in DMSO) was added to Aβ 1-40 to achieve of a concentration 10 or 100 μmol/L of investigational compound in 100 μmol/L of Aβ 1-40. All incubations were performed over a period of 7 days at 37° C. and the incubation mixture was slowly mixed for 6 hours every 24 h. At the conclusion of the experiment samples containing 15 μg of Aβ 1-40 with and without investigational compounds were added to 1 mL of 50 mM glycine, pH 9.2 and 2 μM of Thioflavin-T (Sigma Chemical, Co.; St. Louis, Mo.). Fluorescence was measured at an excitation of 435 nm and an emission of 485 nm in a Perkin-Elmer LS-50B fluorescence spectrophotometer (Perkin Elmer Instruments, Shelton, Conn.). A time scan of fluorescence was performed and three values after the decay reached a plateau (280, 290, 300 seconds) were averaged. The background fluorescence of 40 μL of Tris buffer added to 2 μM/L of Thioflavin-T solution was subtracted. Samples were run in duplicate. Differences in amount of fibrils formed in the presence of investigational compounds were evaluated by means of one-way ANOVA followed by a Dunnet post-hoc test using Statistica (version 6.1, StatSoft Inc., OK).
[…] monomerized synthetic Aβ40 was incubated in 0.1M Tris pH 7.0, T=37° C. for 8 days in the presence of 0-100 μM concentration of compounds. […] An arrow indicates Aβ monomers clustered in ill developed protofibril. (C) Oligomerization assay. ARN4261 and ARN4224 reduced the amount of Aβ oligomers by 78% and 74%, respectively p<0.001. A compound 69b (GKLVFNmgA) was used as a positive control. 69b is homologous to Aβ sequence 17-21 and contains N-methyl glycine (Nmg), which renders it capable of anti-fibrillization and anti-oligomerization effect. (D) Principle of oligomerization assay. 100 μM Aβ40 was aggregated alone or with the addition of 10 μM of tested compounds [1:10 compound: Ab ratio] for 24 h in conditions promoting oligomers assembly, i.e., DMEM/F-12 medium+0.2% SDS, T=4° C. Prior to SDS-PAGE in non-reducing conditions samples were treated with glutaraldehyde. A strong smear of Aβ oligomers is seen between 37 and 70 KDa markers (arrows) in lane 2, and a dense band below the 25 KDa marker reflects Aβ monomers non-dissociated by 10% polyacrylamide gel. No oligomers above 37 KDa marker are seen in lane 1 containing only Aβ monomers run as a control. […] (E) TEM of Aβ oligomers. […] Yellow arrowhead indicates smaller oligomers.

A further test has as its system Aβ42. The test can be described thus: Secretion of Aβ42 by 751APPSW CHO cells (sandwich ELISA). The test is classed as cell-based. The following applies: 48 hr; for Emax: read-out: EMAX of Aβ42 production inhibition; for IC50: read-out: IC50% of Aβ42 production. Here is the method:
In addition to studying the effect of ARN4261 and ARN2966 on Aβ oligomerization and fibrillization, we have explored their properties in respect to the modulation of Aβ production using CHO clones stably transfected with WT human APP751 and double Swedish APP751 mutant (KM670/671NL). The results in FIGS. 3(A) and 3(B) show inhibitory effect of ARN4261 and ARN2966 on secretion of Aβ40 and Aβ42 by 751APPSW CHO cells exposed to ARN compounds for 48 hr. Values are expressed as % of Aβ40 and Aβ42 levels in conditioned media (CM) of untreated cells. FIG. 3(C) Concentrations of Aβ40 and Aβ42 in 751APPSWCHO cell CM under increasing concentrations of ARN2966. 751APPSWCHO cells secrete Aβ40 and Aβ42 in proportions 9:1, akin to the proportions of Aβ peptides produced by neurons. […] Aβ40 and Aβ42 levels were determined using sandwich ELISA where C-terminal specific anti Aβ40 and Aβ42 mAbs were used as capture Abs and biotinylated 4G8 as the detection Ab. […] We also confirmed that ARN2966 inhibited secretion of Aβ by primary neuronal cultures derived from Tg2576 AD Tg mice.
For orientation: In an ELISA, binding on a coated surface is turned into a signal by an enzyme label.

Molecules are shown by their SMILES. “Also recorded” adds a separate entry of the source. Where only a bound is given, the exact number is not on record here.

T1 sequence (P05067 672-711): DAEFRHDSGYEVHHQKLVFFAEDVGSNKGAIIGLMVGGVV

For orientation: Emax means the size of the effect at its maximum, as opposed to the concentration needed. As usually defined, the IC50 is the midpoint of a concentration-inhibition curve. For the compound `Oc1ccccc1NCc1ccccn1` [ARN2966, 2-[(pyridine-2-ylmethyl)-amino]-phenol], the “anti-APP immunostaining with 22C11 mAb” value in the test on APP (751APPSW CHO cells) is recorded as “reduced without evidence of staining redistribution; also recorded: Reduced anti-APP staining”. Moreover, in the test with APP (751APPSW CHO clone), the “concentrations at which reduction in APP FL level is seen” value is no less than 10 µM; the “level of APP FL, C99 and C83 in cell lysates” value is “reduce the level of full length APP (APP FL) and both C99 and C83 APP stubs; also recorded: reduced levels of full length APP (APP FL) and C99 and C83 APP stubs”; the “sAPP (sAPPα and total sAPP stub) in conditioned media” value is “reduced levels”. Besides, the “level of β-actin” value in the test on APP (751APPSW CHO clone, increasing concentration) is given as “no apparent change”. The “behaviour in anti-Aβ aggregation assays” value at Aβ40 (compared with ARN4261) is recorded as “behaves comparably to ARN4261”. In the test with Aβ42, the Emax turned out to be 84.5% and the IC50 came to 5.53 µM.
By EC50 is commonly meant the concentration needed to bring the measured effect to its halfway point. As for `Oc1ccccc1N=Cc1ccccn1` [ARN4261, 2-(Pyridin-2-ylmethyleneamino)-phenol], the “level of APP FL, C99 and C83 in cell lysates” value in the test with APP (751APPSW CHO clone) was “reduce the level of full length APP (APP FL) and both C99 and C83 APP stubs; also recorded: reduced levels of full length APP (APP FL) and C99 and C83 APP stubs”. Also, the EC50 at Aβ40 (100 μM HFIP monomerized synthetic Aβ40, 0.1M Tris pH 7.0, 37° C., 8 days, 0-100 μM compound, read-out: EC50 of fibril reduction) turned out to be 16 µM. Further, the Emax on Aβ40 (pH 7, read-out: EMAX (% of maximal fibril reduction)) came to 88%; with Aβ42 it was 98.9 ± 0.4%. Further, the “TEM analysis of Aβ fibrils” value on Aβ40 (transmission electron microscopy) is “markedly reduced density and length of Aβ fibrils”. For the same compound, the 50% inhibitory concentration (IC50) in the test with Aβ42 turned out to be 6.54 µM.

Values taken from US8658677B2, “Pyridyl-2-methylamino compounds, compositions and uses thereof” (Aria Neurosciences Inc., priority 2011, dated 2014).
